Experiment in all cases: relative viability (nuclei count vs DMSO), 5 days (fraction); higher = more cells survive
Compound in the test “RU-SKI 43 + AZD7762”: CC[C@@H](C)CNCC(=O)N1CCC2=C([C@@H]1COC3=CC=CC(=C3)C)C=CS2 [RU-SKI 43] + NC(=O)Nc1cc(-c2cccc(F)c2)sc1C(=O)N[C@H]1CCCNC1 [AZD7762] (partner 0.2 µM)
An outline of the steps:
(§1)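 Lung cancer cell lines were seeded in 1536-well plates and dosed by pin tool the next day, with either a single drug or a fixed anchor-drug dose combined with five library-drug doses (not always all listed) spaced in √10 steps. Five days later, one step fixed the cells and stained their nuclei (final 0.05% Triton X-100, 1% formaldehyde, 1 ug/ml Hoechst), and nuclei were counted on 4× images. Relative viability is the nuclei count in treated wells divided by the count in vehicle wells, and each value is the median of duplicate plates.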

Compound in the test “MK-8033 + Trametinib”: Cn1cc(-c2cnc3ccc4ccc(CS(=O)(=O)NCc5ccccn5)cc4c(=O)c3c2)cn1 [MK-8033] + CC(=O)Nc1cccc(-n2c(=O)n(C3CC3)c(=O)c3c(Nc4ccc(I)cc4F)n(C)c(=O)c(C)c32)c1 [Trametinib] (partner 0.02 µM)
The gist of the method:
as §1

Compound in the test “RU-SKI 43 + Pemetrexed”: CC[C@@H](C)CNCC(=O)N1CCC2=C([C@@H]1COC3=CC=CC(=C3)C)C=CS2 [RU-SKI 43] + Nc1nc2[nH]cc(CCc3ccc(C(=O)N[C@@H](CCC(=O)O)C(=O)O)cc3)c2c(=O)[nH]1 [Pemetrexed] (partner 0.2 µM)
The gist of the method: as §1

Compound in the test “RU-SKI 43 + Decitabine”: CC[C@@H](C)CNCC(=O)N1CCC2=C([C@@H]1COC3=CC=CC(=C3)C)C=CS2 [RU-SKI 43] + Nc1ncn([C@H]2C[C@H](O)[C@@H](CO)O2)c(=O)n1 [Decitabine] (partner 2 µM)
An outline of the steps: as §1

As for EMC-BAC-2, the relative viability worked out at 1.1 with RU-SKI 43 + AZD7762 (first compound 0.1 µM); 1.1 in the test with RU-SKI 43 + AZD7762 (first compound 0.3162 µM); 1.27 with RU-SKI 43 + AZD7762 (first compound 1 µM); 1.13 in the test with RU-SKI 43 + AZD7762 (first compound 3.162 µM); 1.09 in the test with RU-SKI 43 + AZD7762 (first compound 10 µM); 0.804 with MK-8033 + Trametinib (first compound 0.02 µM). In addition, the relative viability in the test with MK-8033 + Trametinib (first compound 0.06325 µM) turned out to be 0.776; in the test with MK-8033 + Trametinib (first compound 0.2 µM) it was 0.826; with MK-8033 + Trametinib (first compound 0.6325 µM), 0.928; with MK-8033 + Trametinib (first compound 2 µM) it was 0.902; in the test with RU-SKI 43 + Pemetrexed (first compound 0.1 µM), 0.441; with RU-SKI 43 + Pemetrexed (first compound 0.3162 µM), 0.401. The relative viability in the test with RU-SKI 43 + Pemetrexed (first compound 1 µM) was determined as 0.455; with RU-SKI 43 + Pemetrexed (first compound 3.162 µM), 0.428; with RU-SKI 43 + Pemetrexed (first compound 10 µM), 0.443; with RU-SKI 43 + Decitabine (first compound 0.1 µM), 0.984; with RU-SKI 43 + Decitabine (first compound 0.3162 µM), 0.965; with RU-SKI 43 + Decitabine (first compound 1 µM) it was 1.02. The relative viability with RU-SKI 43 + Decitabine (first compound 3.162 µM) is 0.997; with RU-SKI 43 + Decitabine (first compound 10 µM) it was 1.03.

Turning to EPLC-272H, the relative viability was determined as 0.242 with RU-SKI 43 + AZD7762 (first compound 0.1 µM); 0.194 with RU-SKI 43 + AZD7762 (first compound 0.3162 µM); 0.195 with RU-SKI 43 + AZD7762 (first compound 1 µM); 0.345 with RU-SKI 43 + AZD7762 (first compound 3.162 µM); 0.26 with RU-SKI 43 + AZD7762 (first compound 10 µM); 0.247 with MK-8033 + Trametinib (first compound 0.02 µM). Also, the relative viability in the test with MK-8033 + Trametinib (first compound 0.06325 µM) amounted to 0.263; in the test with MK-8033 + Trametinib (first compound 0.2 µM) it was 0.29; in the test with MK-8033 + Trametinib (first compound 0.6325 µM), 0.275; with MK-8033 + Trametinib (first compound 2 µM) it was 0.301; with RU-SKI 43 + Pemetrexed (first compound 0.1 µM) it was 0.349; with RU-SKI 43 + Pemetrexed (first compound 0.3162 µM), 0.405. The relative viability with RU-SKI 43 + Pemetrexed (first compound 1 µM) stood at 0.243; with RU-SKI 43 + Pemetrexed (first compound 3.162 µM) it was 0.317; with RU-SKI 43 + Pemetrexed (first compound 10 µM) it was 0.238; with RU-SKI 43 + Decitabine (first compound 0.1 µM), 0.358; in the test with RU-SKI 43 + Decitabine (first compound 0.3162 µM), 0.369; in the test with RU-SKI 43 + Decitabine (first compound 1 µM), 0.324. Besides, the relative viability with RU-SKI 43 + Decitabine (first compound 3.162 µM) is 0.365; with RU-SKI 43 + Decitabine (first compound 10 µM), 0.353.

Regarding H3255, the relative viability with RU-SKI 43 + AZD7762 (first compound 0.1 µM) worked out at 0.843; in the test with RU-SKI 43 + AZD7762 (first compound 0.3162 µM) it was 1.02; with RU-SKI 43 + AZD7762 (first compound 1 µM) it was 1.03; with RU-SKI 43 + AZD7762 (first compound 3.162 µM), 0.839; with RU-SKI 43 + AZD7762 (first compound 10 µM), 0.873; in the test with MK-8033 + Trametinib (first compound 0.02 µM), 0.598. Moreover, the relative viability with MK-8033 + Trametinib (first compound 0.2 µM) was 0.562; in the test with MK-8033 + Trametinib (first compound 0.6325 µM) it was 0.656; with MK-8033 + Trametinib (first compound 2 µM), 0.532; with RU-SKI 43 + Pemetrexed (first compound 0.1 µM), 0.554; with RU-SKI 43 + Pemetrexed (first compound 0.3162 µM), 0.61; with RU-SKI 43 + Pemetrexed (first compound 1 µM), 0.571. Besides, the relative viability with RU-SKI 43 + Pemetrexed (first compound 3.162 µM) came to 0.555; with RU-SKI 43 + Pemetrexed (first compound 10 µM) it was 0.595; in the test with RU-SKI 43 + Decitabine (first compound 0.1 µM), 0.564; in the test with RU-SKI 43 + Decitabine (first compound 0.3162 µM) it was 0.697; with RU-SKI 43 + Decitabine (first compound 1 µM) it was 0.683; with RU-SKI 43 + Decitabine (first compound 3.162 µM), 0.619. The relative viability with RU-SKI 43 + Decitabine (first compound 10 µM) was 0.579.

For HARA, the relative viability with RU-SKI 43 + AZD7762 (first compound 0.1 µM) stood at 0.469; in the test with RU-SKI 43 + AZD7762 (first compound 0.3162 µM), 0.243; with RU-SKI 43 + AZD7762 (first compound 1 µM) it was 0.301; in the test with RU-SKI 43 + AZD7762 (first compound 3.162 µM), 0.357; with RU-SKI 43 + AZD7762 (first compound 10 µM), 0.279; with MK-8033 + Trametinib (first compound 0.02 µM), 0.509. In addition, the relative viability in the test with MK-8033 + Trametinib (first compound 0.06325 µM) was 0.525; with MK-8033 + Trametinib (first compound 0.2 µM), 0.825; in the test with MK-8033 + Trametinib (first compound 0.6325 µM) it was 0.423; with MK-8033 + Trametinib (first compound 2 µM) it was 0.689; with RU-SKI 43 + Pemetrexed (first compound 0.1 µM), 0.265; with RU-SKI 43 + Pemetrexed (first compound 0.3162 µM) it was 0.264. The relative viability with RU-SKI 43 + Pemetrexed (first compound 1 µM) came to 0.259; with RU-SKI 43 + Pemetrexed (first compound 3.162 µM), 0.277; with RU-SKI 43 + Pemetrexed (first compound 10 µM), 0.254; with RU-SKI 43 + Decitabine (first compound 0.1 µM), 0.497; with RU-SKI 43 + Decitabine (first compound 0.3162 µM), 0.682; with RU-SKI 43 + Decitabine (first compound 1 µM), 0.566. Moreover, the relative viability with RU-SKI 43 + Decitabine (first compound 3.162 µM) turned out to be 0.46; with RU-SKI 43 + Decitabine (first compound 10 µM) it was 0.47.
